Measurements reported in US6518221B1, “Plant growth regulator and method for using same” (Wilbur-Ellis Company, priority 2002, dated 2003).

Assays:
Format in all cases: in vivo
[1] = test system: Stoneville cotton variety; test: Field study in Mississippi on Stoneville cotton: fruit (boll) set; details: 10 grams per acre, applied once on July 8th, with 5.0% calcium and 1.25% zinc
Description: A field study was conducted in the State of Mississippi on a Stoneville cotton variety, in which the physiological characteristics of plants treated with the plant growth regulator of the present invention (a mixture of CCC, WSCP, and CC), were compared to the characteristics of untreated plants, or “checks”, and the characteristics of plants treated with PIX.
The formulation of the present invention used in Example 2 was as follows: the ratio of WSCP to CCC was reduced to 2.7:1, and the ratio of CC (Choline Chloride) to CCC was 0.6:1. Also added to the formulation was 5.0% calcium and 1.25% zinc.
The rate of PIX application was 10 grams per acre, applied once on July 8th of the study year. The rate and timing of this application was consistent with the manufacturer's label recommendation. The rate of application of the plant growth regulator of the present invention was 2.5 grams per acre, applied once on June 28th and again on July 18th. As with Example 1, the formulations of PIX used in Example 2, included 5.0% calcium and 1.25% zinc.
The physiological characteristics under study determine the effectiveness of the chemical products on fruit, or boll, set. The first fruiting position on a reproductive branch is the most important plant feature that affects expected plant yield. Consequently, the higher the percentage of fruit set at the first fruiting position the higher the fruit yield potential.

[2] = test system: MAXXA cotton; test: Study on MAXXA cotton: effects on plant growth and development; details: 10 gm/A
Description: A study was conducted on MAXXA cotton to determine the effects of Mepiquat Chloride and the combination of (CCC) chlormequat chloride/WSCP on plant growth and development.
In this example, the amount of WSCP used in each chemical treatment was constant, and the amount of CCC varied from 2.5 to 5.0 grams/acre. The corresponding ratios of WSCP and CCC were as follows: at the 2.5 gram/acre rate the ratio of WSCP to CCC was 30:1; at the 5.0 gram/acre rate the ratio of WSCP to CCC was 15:1. It should also be noted that 5.0% calcium and 1.25% zinc were also added to each of the mixtures.

[3] = test system: cotton; test: Field trials in Greece: plant growth regulating effects (plant height); details: 20.0 gm/Ha
Text: Field trials were established in the country of Greece to determine the plant growth regulating effects of several products, including the chemical formulation of the present invention. The particular formulation of the present invention used in these trials, was as follows: 1.0 parts CCC; 2.7 parts WSCP; 0.6 parts CC; 27 parts Calcium; and, 6.75 parts Zinc (parts per weight). All of the chemical applications were applied at the same time, and there were three replications at each trial site.

C[N+]1(C)CCCCC1.[Cl-] [Mepiquat Chloride, N,N-dimethylpiperidinium chloride] was tested, and the “First Fruiting Branch” value [1] was 6, the “Percentage Of First Fruiting Positions (Nodes 6-13)” value [1] was 76.3% and the “Total Percentage Of Fruit Set (Nodes 6-13)” value [1] was 65.0%. The “Average Bottom 5 FPB (First Position Bolls As A Percentage)” value [2] was 60.0 Percentage, the “Average Fruiting Branches” value [2] was 15.7 and the “Average Nodes” value [2] was 21.7. For the same molecule, the “Average Plant Height” value [2] was 35.9″, the “Average Top 5 FPB (First Position Bolls As A Percentage)” value [2] was 43.0 Percentage and the “Average Vegetative Nodes” value [2] was 6.1. The “Plant Height” value ([3]; Site 1) was 10.00 Cm, the “Plant Height” value ([3]; Site 2) was 27.33 Cm and the “Plant Height” value ([3]; Site 3) was 7.78 Cm.
